This assay has as its target Human CD38 (Homo sapiens (Human), UniProt P28907). Put plainly: CD38 enzyme assay. The class given is biochemical. Particulars: 2 nM CD38, NAD+ substrate, absorbance at 405 nm. The gist of the method:
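IC50 values come from fitting % inhibition against compound concentration with a 4-parameter logistic, or a 3-parameter fit with top/bottom fixed at 100/0 or Hill at 1. Inhibition is scaled between DMSO wells and positive-control wells treated with a quinolinone CD38 inhibitor.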
Human CD38, sequence (P28907 whole entry): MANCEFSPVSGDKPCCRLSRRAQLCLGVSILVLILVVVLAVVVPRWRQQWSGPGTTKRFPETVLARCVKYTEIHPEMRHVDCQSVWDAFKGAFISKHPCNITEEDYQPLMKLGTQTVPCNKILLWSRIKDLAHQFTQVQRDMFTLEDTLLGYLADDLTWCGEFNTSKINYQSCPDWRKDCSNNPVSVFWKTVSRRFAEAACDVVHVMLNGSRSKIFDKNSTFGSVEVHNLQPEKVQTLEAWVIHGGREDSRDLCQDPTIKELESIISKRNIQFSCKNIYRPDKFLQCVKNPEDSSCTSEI
On to `O=C(N[C@H]1CC[C@H](NCCC(F)(F)F)CC1)c1nc(-n2ccnc2)nc2ccsc12` [Example 222, 2-(1H-imidazol-1-yl)-N-((1r,4r)-4-((3,3,3-trifluoropropyl)amino)cyclohexyl)thieno[3,2-d]pyrimidine-4-carboxamide], for which the IC50 lay in the range of 10 to 100 nM.
As for `CN(C)CCOc1ccc(NC(=O)c2nc(-n3ccnc3)cc3cn[nH]c23)cn1` [Example 223, N-(6-(2-(dimethylamino)ethoxy)pyridin-3-yl)-5-(1H-imidazol-1-yl)-1H-pyrazolo[3,4-c]pyridine-7-carboxamide], the IC50 fell in the range of 10 to 100 nM.
For `O=C(Nc1ccc(N2CCNCC2)nc1)c1nc(-n2ccnc2)cc2cn[nH]c12` [Example 224, 5-(1H-imidazol-1-yl)-N-(6-(piperazin-1-yl)pyridin-3-yl)-1H-pyrazolo[3,4-c]pyridine-7-carboxamide], the IC50 was below 10 nM.
In the case of `O=C(N[C@H]1CC[C@H](CO)CC1)c1nc(-n2ccnc2)cc2cn[nH]c12` [Example 225, N-((1r,4r)-4-(hydroxymethyl)cyclohexyl)-5-(1H-imidazol-1-yl)-1H-pyrazolo[3,4-c]pyridine-7-carboxamide] it was below 10 nM; in that of `C[C@]1(O)CC[C@@H](NC(=O)c2nc(-n3ccnc3)cc3cn[nH]c23)CC1` [Example 226, N-((1s,4s)-4-hydroxy-4-methylcyclohexyl)-5-(1H-imidazol-1-yl)-1H-pyrazolo[3,4-c]pyridine-7-carboxamide], 10 to 100 nM.
Consider `O=C(N[C@H]1CC[C@H](N2CC(F)(F)C2)CC1)c1nc(-n2ccnc2)cc2cn[nH]c12` [Example 227, N-((1r,4r)-4-(3,3-difluoroazetidin-1-yl)cyclohexyl)-5-(1H-imidazol-1-yl)-1H-pyrazolo[3,4-c]pyridine-7-carboxamide], for which the IC50 is 10 to 100 nM.
Compound `O=C(N[C@H]1CC[C@H](C2(O)CC2)CC1)c1nc(-n2ccnc2)cc2cn[nH]c12` [Example 228, N-((1r,4r)-4-(1-hydroxycyclopropyl)cyclohexyl)-5-(1H-imidazol-1-yl)-1H-pyrazolo[3,4-c]pyridine-7-carboxamide] registered an IC50 below 10 nM.
On to `O=C(Nc1ccc(C(F)(F)F)nc1)c1nc(-n2ccnc2)cc2cn[nH]c12` [Example 229, 5-(1H-imidazol-1-yl)-N-(6-(trifluoromethyl)pyridin-3-yl)-1H-pyrazolo[3,4-c]pyridine-7-carboxamide], for which the IC50 was below 10 nM.
`O=C(Nc1ccc(OCCN2CC3(COC3)C2)nc1)c1nc(-n2ccnc2)cc2cn[nH]c12` [Example 230, N-(6-(2-(2-oxa-6-azaspiro[3.3]heptan-6-yl)ethoxy)pyridin-3-yl)-5-(1H-imidazol-1-yl)-1H-pyrazolo[3,4-c]pyridine-7-carboxamide] registered an IC50 of 10 to 100 nM.
The result for `O=C(Nc1ccc(OCC(F)(F)F)nc1)c1nc(-n2ccnc2)cc2cn[nH]c12` [Example 231, 5-(1H-imidazol-1-yl)-N-(6-(2,2,2-trifluoroethoxy)pyridin-3-yl)-1H-pyrazolo[3,4-c]pyridine-7-carboxamide] reads below 10 nM; that for `O=C(N[C@H]1CC[C@H](N2CCC(F)(F)C2)CC1)c1nc(-n2ccnc2)cc2cn[nH]c12` [Example 232, N-((1r,4r)-4-(3,3-difluoropyrrolidin-1-yl)cyclohexyl)-5-(1H-imidazol-1-yl)-1H-pyrazolo[3,4-c]pyridine-7-carboxamide], 10 to 100 nM.
In the case of `O=C(N[C@H]1CC[C@H](NC2COC2)CC1)c1nc(-n2ccnc2)cc2cn[nH]c12` [Example 233, 5-(1H-imidazol-1-yl)-N-((1r,4r)-4-(oxetan-3-ylamino)cyclohexyl)-1H-pyrazolo[3,4-c]pyridine-7-carboxamide], the IC50 fell in the range of 10 to 100 nM.
Compound `O=C(N[C@H]1CC[C@H](N2CC(C(F)(F)F)C2)CC1)c1nc(-n2ccnc2)cc2cn[nH]c12` [Example 234, 5-(1H-imidazol-1-yl)-N-((1r,4r)-4-(3-(trifluoromethyl)azetidin-1-yl)cyclohexyl)-1H-pyrazolo[3,4-c]pyridine-7-carboxamide] returned an IC50 of 10 to 100 nM.
Regarding `CC(F)(F)CN[C@H]1CC[C@H](NC(=O)c2nc(-n3ccnc3)nc3cc[nH]c23)CC1` [Example 235, N-((1r,4r)-4-((2,2-difluoropropyl)amino)cyclohexyl)-2-(1H-imidazol-1-yl)-5H-pyrrolo[3,2-d]pyrimidine-4-carboxamide], the IC50 fell in the range of 10 to 100 nM.
The result for `O=C(Nc1ccc2c(c1)CNC2)c1nc(-n2ccnc2)cc2cn[nH]c12` [Example 236, 5-(1H-imidazol-1-yl)-N-(isoindolin-5-yl)-1H-pyrazolo[3,4-c]pyridine-7-carboxamide] reads below 10 nM; that for `CC(=O)N1Cc2ccc(NC(=O)c3nc(-n4ccnc4)cc4cn[nH]c34)cc2C1` [Example 237, N-(2-acetylisoindolin-5-yl)-5-(1H-imidazol-1-yl)-1H-pyrazolo[3,4-c]pyridine-7-carboxamide], below 10 nM.
`O=C(N[C@H]1CC[C@H](C2(O)CC2)CC1)c1nc(-n2ccnc2)nc2cn[nH]c12` [Example 238, N-((1r,4r)-4-(1-hydroxycyclopropyl)cyclohexyl)-5-(1H-imidazol-1-yl)-1H-pyrazolo[4,3-d]pyrimidine-7-carboxamide]: the IC50 is below 10 nM.
`C[C@]1(NCC(F)(F)F)CC[C@@H](NC(=O)c2nc(-n3ccnc3)cc3cn[nH]c23)CC1` [Example 239, 5-(1H-imidazol-1-yl)-N-((1s,4s)-4-methyl-4-((2,2,2-trifluoroethyl)amino)cyclohexyl)-1H-pyrazolo[3,4-c]pyridine-7-carboxamide] registered an IC50 below 10 nM.
On to `C[C@]1(NCC(F)(F)F)CC[C@H](NC(=O)c2nc(-n3ccnc3)cc3cn[nH]c23)CC1` [Example 240, 5-(1H-imidazol-1-yl)-N-((1r,4r)-4-methyl-4-((2,2,2-trifluoroethyl)amino)cyclohexyl)-1H-pyrazolo[3,4-c]pyridine-7-carboxamide], for which the IC50 lay in the range of 100 to 1000 nM.
For the compound `O=C(N[C@H]1CC[C@H](N2CC(C(F)(F)F)C2)CC1)c1nc(-n2ccnc2)nc2cn[nH]c12` [Example 241, 5-(1H-imidazol-1-yl)-N-((1r,4r)-4-(3-(trifluoromethyl)azetidin-1-yl)cyclohexyl)-1H-pyrazolo[4,3-d]pyrimidine-7-carboxamide], the IC50 was in the range of 10 to 100 nM.
In turn, `CNC(=O)[C@H]1CC[C@H](NC(=O)c2nc(-n3ccnc3)nc3cn[nH]c23)CC1` [Example 242, 5-(1H-imidazol-1-yl)-N-((1r,4r)-4-(methylcarbamoyl)cyclohexyl)-1H-pyrazolo[4,3-d]pyrimidine-7-carboxamide] gave an IC50 of 10 to 100 nM.
Take `CC(=O)NC[C@H]1CC[C@H](NC(=O)c2nc(-n3ccnc3)nc3cn[nH]c23)CC1` [Example 243, N-((1r,4r)-4-(acetamidomethyl)cyclohexyl)-5-(1H-imidazol-1-yl)-1H-pyrazolo[4,3-d]pyrimidine-7-carboxamide]: the IC50 is 10 to 100 nM.
As to `CC(F)(F)CN[C@H]1CC[C@H](NC(=O)c2nc(-n3ccnc3)nc3cn[nH]c23)CC1` [Example 244, N-((1r,4r)-4-((2,2-difluoropropyl)amino)cyclohexyl)-5-(1H-imidazol-1-yl)-1H-pyrazolo[4,3-d]pyrimidine-7-carboxamide], the IC50 fell in the range of 10 to 100 nM.
In the case of `O=C(NCCC(F)F)c1nc(-n2ccnc2)cc2cn[nH]c12` [Example 245, N-(3,3-difluoropropyl)-5-(1H-imidazol-1-yl)-1H-pyrazolo[3,4-c]pyridine-7-carboxamide], the IC50 is 10 to 100 nM.

(Values after patent US11535621B2, “Heterobicyclic amides as inhibitors of CD38” (Ribon Therapeutics, Inc., priority 2019, dated 2022).)
